This passage reports IC50 results from patent US5712417A, “Inhibitors of retroviral proteases” (Abbott Laboratories, priority 1989, dated 1998).

Counter-ions that a name gives are not always drawn.

The target of one assay is T1, HIV protease (Human immunodeficiency virus type 1 group M subtype B, UniProt P04585).
T1 construct: HIV protease consists of 99 amino acids and is evidently split off by itself from the pol polyprotein
Nature of the assay: Inhibition of HIV protease (cleavage of H-Ser-Phe-Asn-Phe-Opr-Gln-Ile-OH, HPLC). Type of assay: biochemical. The following applies: inhibitor concentration at which the cleavage rate is halved; pH 6, 2 hours; read-out: IC50. In short, it runs like this:
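Substrate H-Ser-Phe-Asn-Phe-Opr-Gln-Ile-OH in MGTE buffer (MES, glycerol, Triton X-100, PMSF, pH 6) preincubated with inhibitor at 37 °C for 5-10 min, then reacted with protease at 35 °C for 2 h. RP18 HPLC at 215 nm; tetrapeptide fraction gives cleavage rate, IC50 where rate is halved.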
As to `CC(C)[C@H](NC(=O)Cc1ccccn1)C(=O)N[C@@H](Cc1ccccc1)[C@@H](O)[C@H](O)[C@H](Cc1ccccc1)NC(=O)[C@@H](NC(=O)Cc1ccccn1)C(C)C` [Example 58, N,N'-bis-<(2-Pyridyl)-acetyl-L-valyl>-2S,5S-diamino-1,6-diphenylhexane-3R,4R-diol], the IC50 (usually the concentration that inhibits the measured activity by half) came out at 49 nM.
Still for that read-out and setting: then `CC(C)[C@H](NC(=O)[C@@H](N)Cc1ccccc1)C(=O)N[C@@H](CC1CCCCC1)[C@H](O)[C@@H](O)[C@H](CC1CCCCC1)NC(=O)[C@@H](NC(=O)[C@@H](N)Cc1ccccc1)C(C)C` [Example 43, N,N'-bis-[L-Phenylalanyl-L-valyl]-2S,5S-diamino-1,6-dicyclohexylhexane-3S,4S-diol dihydrochloride], with 1 nM; and `CC(C)[C@H](NC(=O)C(Cc1ccccc1)C[S+]([O-])Cc1ccccc1)C(=O)N[C@@H](Cc1ccccc1)[C@@H](O)[C@H](O)[C@H](Cc1ccccc1)NC(=O)[C@@H](NC(=O)C(Cc1ccccc1)C[S+]([O-])Cc1ccccc1)C(C)C` (stereo partly drawn) [Example 121, N,N'-bis-<(2-(Benzylsulfinylmethyl)-3-phenylpropionyl)-L-valyl>-2S,5S-diamino-1,6-diphenylhexane-3R,4R-diol], with 22 nM.
The same measure, in the same setting: then `CC(C)[C@H](NC(=O)[C@@H]1Cc2ccccc2CN1)C(=O)N[C@@H](Cc1ccccc1)[C@@H](O)[C@H](O)[C@H](Cc1ccccc1)NC(=O)[C@@H](NC(=O)[C@@H]1Cc2ccccc2CN1)C(C)C` [Example 120, N,N'-bis-<L-1,2,3,4-Tetrahydroisoquinolin-3-ylcarbonyl-L-valyl>-2S,5S-diamino-1,6-diphenylhexane-3R,4R-diol diacetate], with 2 nM; and `CCCCC[C@H](NC(=O)[C@@H](NC(=O)[C@@H](N)Cc1ccccc1)C(C)C)[C@@H](O)[C@H](O)[C@H](CCCCC)NC(=O)[C@@H](NC(=O)[C@@H](N)Cc1ccccc1)C(C)C` [Example 151, N,N'-bis-(L-Phenylalanyl-L-valyl )-6S, 9S-diamino-tetradecane-7R, 8R-diol dihydrochloride], with 4 nM.
Take `CC(C)[C@H](NC(=O)[C@@H](N)CCS(C)(=O)=O)C(=O)N[C@@H](Cc1ccccc1)[C@@H](O)[C@H](O)[C@H](Cc1ccccc1)NC(=O)[C@@H](NC(=O)[C@@H](N)CCS(C)(=O)=O)C(C)C` [Example 89, N,N'-bis-<L-(S-Dioxo)methionyl-L-valyl>-2S,5S-diamino-1,6-diphenylhexane-3R,4R-diol dihydrochloride]: the IC50 came to 1.8 nM.
In the case of `CC(C)[C@H](NC(=O)[C@@H](N)CC1CCCCC1)C(=O)N[C@@H](Cc1ccccc1)[C@@H](O)[C@H](O)[C@H](Cc1ccccc1)NC(=O)[C@@H](NC(=O)[C@@H](N)CC1CCCCC1)C(C)C` [Example 116, N,N'-bis-<L-Cyclohexylalanyl-L-valyl>-2S,5S-diamino-1,6-diphenylhexane-3R,4R-diol dihydrochloride], the 50% inhibitory concentration (IC50) came out at 1.7 nM.
The same measure, in the same setting: then `CC(C)[C@H](NC(=O)[C@H](Cc1cccc2ccccc12)CS(=O)(=O)C(C)(C)C)C(=O)N[C@@H](Cc1ccccc1)[C@H](O)[C@@H](O)[C@H](Cc1ccccc1)NC(=O)[C@@H](NC(=O)[C@H](Cc1cccc2ccccc12)CS(=O)(=O)C(C)(C)C)C(C)C` [Example 51, N,N'-bis-<(2S-(1,1-Dimethylethylsulfonylmethyl)-3-(1-naphthyl)-propionyl)-L-valyl>-2S,5S-diamino-1,6-diphenyl-hexane-3S,4S-diol], with 0.8 nM; and `CC(C)[C@H](NC(=O)[C@H](Cc1ccccc1)NC(=O)[C@@H](N)CO)C(=O)N[C@@H](Cc1ccccc1)[C@H](O)[C@@H](O)[C@H](Cc1ccccc1)NC(=O)[C@@H](NC(=O)[C@H](Cc1ccccc1)NC(=O)[C@@H](N)CO)C(C)C` [Example 19, N,N'-bis-(L-Seryl-L-phenylalanyl-L-valyl)-2S,5S-diamino-1,6-diphenylhexane-3S,4S-diol dihydrochloride], with 0.7 nM.
Turning to `CC(C)[C@H](NC(=O)[C@H](CC1CCCCC1)NC(=O)OC(C)(C)C)C(=O)N[C@@H](Cc1ccccc1)[C@@H](O)[C@H](O)[C@H](Cc1ccccc1)NC(=O)[C@@H](NC(=O)[C@H](CC1CCCCC1)NC(=O)OC(C)(C)C)C(C)C` [Example 115, N,N'-bis-<tert.-Butyloxycarbonyl-L-cyclohexylalanyl-L-valyl>-2S,5S-diamino-1,6-diphenylhexane-3R,4R-diol], the half-maximal inhibitory concentration (IC50) worked out at 2200 nM.
On the same count and under the same terms, the figure for `CCCCC[C@H](NC(=O)[C@@H](NC(=O)[C@H](Cc1ccccc1)NC(=O)OC(C)(C)C)C(C)C)[C@@H](O)[C@H](O)[C@H](CCCCC)NC(=O)[C@@H](NC(=O)[C@H](Cc1ccccc1)NC(=O)OC(C)(C)C)C(C)C` [Example 150, N,N'-bis-(tert.-Butoxycarbonyl-L-phenylalanyl-L-valyl)-6S,9S-diaminotetradecane-7R, 8R-diol] is 95 nM; for `CC(C)[C@H](NC(=O)[C@H](Cc1cccc2ccccc12)CS(=O)(=O)C(C)(C)C)C(=O)N[C@@H](Cc1ccc2c(c1)OCO2)[C@@H](O)[C@H](O)[C@H](Cc1ccc2c(c1)OCO2)NC(=O)[C@@H](NC(=O)[C@H](Cc1cccc2ccccc12)CS(=O)(=O)C(C)(C)C)C(C)C` [Example 155] it is 10 nM; for `CC(C)[C@H](NC(=O)[C@H](Cc1ccc2ccccc2c1)NS(C)(=O)=O)C(=O)N[C@@H](Cc1ccccc1)[C@@H](O)[C@H](O)[C@H](Cc1ccccc1)NC(=O)[C@@H](NC(=O)[C@H](Cc1ccc2ccccc2c1)NS(C)(=O)=O)C(C)C` [Example 125, N,N,-bis-<N-Mesyl-β-naphthylalanyl-L-valyl>-2S,5S-diamino-1,6-diphenylhexane-3R,4R-diol] it is 0.75 nM.
As for `CC(C)[C@H](NC(=O)[C@H](CCCCN)NC(=O)OC(C)(C)C)C(=O)N[C@@H](Cc1ccccc1)[C@@H](O)[C@H](O)[C@H](Cc1ccccc1)NC(=O)[C@@H](NC(=O)[C@H](CCCCN)NC(=O)OC(C)(C)C)C(C)C` [Example 11, N,N'-bis-(Nα-<tert.-Butoxycarbonyl>-L-lysyl-L-valyl)-2S,5S-diamino-1,6-diphenyl-hexane-3R,4R-diol dihydrochloride], the concentration for half-maximal inhibition (IC50) was 0.8 nM.
Still for that read-out and setting: the figure for `CC(C)[C@H](NC(=O)[C@H](Cc1cccc2ccccc12)NC(=O)OC(C)(C)C)C(=O)N[C@@H](Cc1ccccc1)[C@@H](O)[C@H](O)[C@H](Cc1ccccc1)NC(=O)[C@@H](NC(=O)[C@H](Cc1cccc2ccccc12)NC(=O)OC(C)(C)C)C(C)C` [Example 40, N,N'-bis-(tert.-Butoxycarbonyl-L-(1-naphthyl)-alanyl-L-valyl)-2S,5S-diamino-1,6-diphenylhexane-3R,4R-diol] is 13 nM; for `CC(C)[C@H](NC(=O)C(Cc1ccccc1)Cn1ccnc1)C(=O)N[C@@H](Cc1ccccc1)[C@H](O)[C@@H](O)[C@H](Cc1ccccc1)NC(=O)[C@@H](NC(=O)C(Cc1ccccc1)Cn1ccnc1)C(C)C` (single isomer, unassigned) [Example 95, N,N'-bis-<(2-(1-Imidazolylmethyl)-3-phenylpropionyl)-L-valyl->-2S,5S-diamino-1,6-diphenylhexane-3S,4S-diol] it is 380 nM; for `CC(C)[C@H](NC(=O)[C@@H](N)Cc1ccccc1)C(=O)NCCCCNC(=O)[C@@H](NC(=O)[C@@H](N)Cc1ccccc1)C(C)C` [Example 145, N,N'-bis-<L-Phenylalanyl-L-valyl>-1.4-diaminobutane dihydrochloride] it is 95 nM.
Same read-out and setting: the figure for `CC(C)[C@H](NC(=O)[C@@H](CNC(=O)OC(C)(C)C)Cc1ccccc1)C(=O)N[C@@H](Cc1ccccc1)[C@@H](O)[C@H](O)[C@H](Cc1ccccc1)NC(=O)[C@@H](NC(=O)[C@@H](CNC(=O)OC(C)(C)C)Cc1ccccc1)C(C)C` [Example 106, N,N,-bis-<(2R-Benzyl-3-tert.-butoxycarbonylamino)-propionly-L-valyl>-2S,5S-diamino-1,6-diphenylhexane-3R,4R-diol] is 85 nM; for `CC(C)[C@H](NC(=O)CNC(=O)OC(C)(C)C)C(=O)N[C@@H](Cc1ccccc1)[C@@H](O)[C@H](O)[C@H](Cc1ccccc1)NC(=O)[C@@H](NC(=O)CNC(=O)OC(C)(C)C)C(C)C` [Example 86, N,N'-bis-<tert.-Butoxycarbonylglycyl-L-valyl>-2S,5S-diamino-1,6-diphenylhexane-3R,4R-diol] it is 2.2 nM; for `CC(C)[C@H](NC(=O)[C@H](Cc1ccccc1)NC(=O)OC(C)(C)C)C(=O)N[C@@H](Cc1ccccc1)[C@@H](O)[C@H](O)[C@H](Cc1ccccc1)NC(=O)[C@@H](NC(=O)[C@H](Cc1ccccc1)NC(=O)OC(C)(C)C)C(C)C` [Example 1, N,N,-bis-(tert.-Butoxycarbonyl-L-phenylalanyl-L-valyl)-2S,5S-diamino-1,6-diphenylhexane-3R,4R-diol] it is 10 nM.
Same read-out and setting: then `CC(C)[C@H](NC(=O)[C@H](N)Cc1ccccc1)C(=O)N[C@@H](Cc1ccccc1)[C@H](O)[C@@H](O)[C@H](Cc1ccccc1)NC(=O)[C@@H](NC(=O)[C@H](N)Cc1ccccc1)C(C)C` [Example 61, N,N'-bis-<D-Phenylalanyl-L-valyl>-2S,5S-diamino-1,6-diphenylhexane-3S,4S-diol dihydrochloride], with 400 nM.

Still in this assay, the particulars now being: read-out: IC50.
As for `CC(C)[C@H](NC(=O)[C@@H](N)Cc1c[nH]c2ccccc12)C(=O)N[C@@H](Cc1ccccc1)[C@@H](O)[C@H](O)[C@H](Cc1ccccc1)NC(=O)[C@@H](NC(=O)[C@@H](N)Cc1c[nH]c2ccccc12)C(C)C` [Example 118, N,N'-bis-<L-Tryptophyl-L-valyl>-2S,5S-diamino-1,6-diphenylhexane-3R,4R-dioldihydrochloride], the IC50 amounted to 1.2 nM.
